Data as given in patent publication US11945794B2, “Nuclear transport modulators and uses thereof” (Karyopharm Therapeutics Inc., priority 2013, dated 2024).

What was measured:
Test in all cases: MTT assay panel
Type in all cases: cell-based
[1] = tested on: DB; details: Homo sapiens; DB cells, 72 hours
Method in brief: (§1)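 Each line is seeded at its own density on day 1 and then treated. Wells receive AQueous One reagent, and plates are read at OD 495 as a measure of viable cells.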

[2] = tested on: HCC-4006; details: Homo sapiens, HCC4006; HCC-4006 cells, 72 hours
Method in brief: as §1

[3] = tested on: IMR-90; details: Homo sapiens; IMR-90 cells, 72 hours
Method in brief: as §1

[4] = tested on: MCF7; details: Homo sapiens; MCF7 cells, 72 hours
Method in brief: as §1

[5] = tested on: MDA-MB-361; details: Homo sapiens; MDA-MB-361 cells, 72 hours
Method in brief: as §1

[6] = tested on: MHCC97H; details: Homo sapiens; MHCC97H cells, 72 hours
Method in brief: as §1

[7] = tested on: NCI-H747; details: Homo sapiens; NCI-H747 cells, 72 hours
Method in brief: as §1

[8] = tested on: NCI-H889; details: Homo sapiens; NCI-H889 cells, 72 hours
Method in brief: as §1

[9] = tested on: PATU-8988T; details: Homo sapiens; PATU-8988T cells, 72 hours
Method in brief: as §1

[10] = tested on: SKOV3; details: Homo sapiens, SK-OV-3; SKOV3 cells, 72 hours
Method in brief: as §1

[11] = tested on: SW-1417; details: Homo sapiens, SW1417; SW-1417 cells, 72 hours
Method in brief: as §1

[12] = tested on: SW-837; details: Homo sapiens, SW837; SW-837 cells, 72 hours
Method in brief: as §1

[13] = tested on: TF-1; details: Homo sapiens; TF-1 cells, 72 hours
Method in brief: as §1

[14] = tested on: TFK-1; details: TFK-1 cells, 72 hours
Method in brief: as §1

[15] = tested on: Tera-1; details: Tera-1 cells, 72 hours
Method in brief: as §1

NC(=O)/C(=C/n1cnc(-c2cc(C(F)(F)F)cc(C(F)(F)F)c2)n1)c1cncnc1 [Compound 124, (E)-3-(3-(3,5-bis(trifluoromethyl)phenyl)-1H-1,2,4-triazol-1-yl)-2-(pyrimidin-5-yl)acrylamide]
IC50 [1]: 60 nM | IC50 [2]: 20 nM | IC50 [3]: > 10000 nM | IC50 [4]: 680 nM | IC50 [5]: > 10000 nM | IC50 [6]: > 10000 nM | IC50 [7]: 70 nM | IC50 [8]: 1020 nM | IC50 [9]: 7170 nM | IC50 [10]: > 10000 nM | IC50 [11]: > 10000 nM | IC50 [12]: 500 nM | IC50 [13]: 110 nM | IC50 [14]: > 10000 nM | IC50 [15]: 150 nM
